Measurements reported in ChEMBL document CHEMBL4411335, “Identification and Optimization of Novel Small c-Abl Kinase Activators Using Fragment and HTS Methodologies” (J Med Chem, 2019).
Values after ≈ are worked out from the molar mass of the structure shown.

Tests used:
[1] = target: T1, Tyrosine-protein kinase ABL1 (Homo sapiens, UniProt P00519); assay: Activation of full length human 6His-tagged c-Abl expressed in baculovirus expression system using abltide as substrate after 2 hrs by IMAP assay; conditions: for EC50 for c-Abl activation: read-out: pIC50 (converted)
[2] = Permeability of the compound at […] after 3 hrs by artificial membrane permeability assay; format: ADME; conditions: PAMPA; read-out: permeability
[3] = Kinetic solubility of the compound at pH 7.4 after 1 hr by CLND-based assay; format: physicochemical; conditions: buffer, read-out: Kinetic_solubility
[4] = target: T1, Tyrosine-protein kinase ABL1; assay: Induction of human c-ABL phosphorylation at Y245/Y412 residues in bacmam-induced HEK-MSR2 cell lysates by in-cell Western blot analysis; format: subcellular, Lysate
[5] = target: Tyrosine-protein kinase ABL1 (Homo sapiens, UniProt P00519, D382N); assay: Displacement of Myr-GQQPGKVLGDQRRPSL(K-TAMRA)G-amide from N-terminal-truncated human c-ABL D382N mutant (46 to 534 residues) after 30 mins by fluorescence polarization binding assay
Sequence of Tyrosine-protein kinase ABL1 (Homo sapiens, UniProt P00519, D382N) (P00519 as listed by the source D382N): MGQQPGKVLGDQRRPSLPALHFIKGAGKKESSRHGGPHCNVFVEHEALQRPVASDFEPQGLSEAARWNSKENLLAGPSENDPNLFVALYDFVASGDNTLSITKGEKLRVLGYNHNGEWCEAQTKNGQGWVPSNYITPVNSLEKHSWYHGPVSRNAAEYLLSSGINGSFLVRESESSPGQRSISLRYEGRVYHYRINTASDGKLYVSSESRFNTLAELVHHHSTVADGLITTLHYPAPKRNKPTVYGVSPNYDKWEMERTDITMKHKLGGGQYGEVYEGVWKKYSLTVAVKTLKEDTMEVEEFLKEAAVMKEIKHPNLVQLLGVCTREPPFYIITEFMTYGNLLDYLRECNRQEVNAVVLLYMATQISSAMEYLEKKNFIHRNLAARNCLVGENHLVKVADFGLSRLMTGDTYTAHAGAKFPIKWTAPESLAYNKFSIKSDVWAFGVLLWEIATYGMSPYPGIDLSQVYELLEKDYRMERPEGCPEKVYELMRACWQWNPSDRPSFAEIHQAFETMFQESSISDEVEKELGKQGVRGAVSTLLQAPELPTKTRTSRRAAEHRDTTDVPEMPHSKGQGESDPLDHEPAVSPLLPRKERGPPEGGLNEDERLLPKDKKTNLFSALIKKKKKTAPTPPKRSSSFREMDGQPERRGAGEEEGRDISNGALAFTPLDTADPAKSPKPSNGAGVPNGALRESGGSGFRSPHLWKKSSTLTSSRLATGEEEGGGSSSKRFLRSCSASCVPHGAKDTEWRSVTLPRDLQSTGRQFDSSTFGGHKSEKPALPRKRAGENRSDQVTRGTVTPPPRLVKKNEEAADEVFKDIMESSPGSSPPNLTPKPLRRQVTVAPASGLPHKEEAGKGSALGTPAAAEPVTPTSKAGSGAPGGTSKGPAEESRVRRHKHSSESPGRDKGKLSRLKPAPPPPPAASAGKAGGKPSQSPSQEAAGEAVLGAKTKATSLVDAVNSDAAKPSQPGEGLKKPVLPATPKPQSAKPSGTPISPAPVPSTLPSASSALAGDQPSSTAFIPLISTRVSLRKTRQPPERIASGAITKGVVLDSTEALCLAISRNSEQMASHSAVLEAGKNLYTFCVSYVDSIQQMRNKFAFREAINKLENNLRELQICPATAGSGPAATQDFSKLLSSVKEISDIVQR

T1 sequence (P00519 whole entry): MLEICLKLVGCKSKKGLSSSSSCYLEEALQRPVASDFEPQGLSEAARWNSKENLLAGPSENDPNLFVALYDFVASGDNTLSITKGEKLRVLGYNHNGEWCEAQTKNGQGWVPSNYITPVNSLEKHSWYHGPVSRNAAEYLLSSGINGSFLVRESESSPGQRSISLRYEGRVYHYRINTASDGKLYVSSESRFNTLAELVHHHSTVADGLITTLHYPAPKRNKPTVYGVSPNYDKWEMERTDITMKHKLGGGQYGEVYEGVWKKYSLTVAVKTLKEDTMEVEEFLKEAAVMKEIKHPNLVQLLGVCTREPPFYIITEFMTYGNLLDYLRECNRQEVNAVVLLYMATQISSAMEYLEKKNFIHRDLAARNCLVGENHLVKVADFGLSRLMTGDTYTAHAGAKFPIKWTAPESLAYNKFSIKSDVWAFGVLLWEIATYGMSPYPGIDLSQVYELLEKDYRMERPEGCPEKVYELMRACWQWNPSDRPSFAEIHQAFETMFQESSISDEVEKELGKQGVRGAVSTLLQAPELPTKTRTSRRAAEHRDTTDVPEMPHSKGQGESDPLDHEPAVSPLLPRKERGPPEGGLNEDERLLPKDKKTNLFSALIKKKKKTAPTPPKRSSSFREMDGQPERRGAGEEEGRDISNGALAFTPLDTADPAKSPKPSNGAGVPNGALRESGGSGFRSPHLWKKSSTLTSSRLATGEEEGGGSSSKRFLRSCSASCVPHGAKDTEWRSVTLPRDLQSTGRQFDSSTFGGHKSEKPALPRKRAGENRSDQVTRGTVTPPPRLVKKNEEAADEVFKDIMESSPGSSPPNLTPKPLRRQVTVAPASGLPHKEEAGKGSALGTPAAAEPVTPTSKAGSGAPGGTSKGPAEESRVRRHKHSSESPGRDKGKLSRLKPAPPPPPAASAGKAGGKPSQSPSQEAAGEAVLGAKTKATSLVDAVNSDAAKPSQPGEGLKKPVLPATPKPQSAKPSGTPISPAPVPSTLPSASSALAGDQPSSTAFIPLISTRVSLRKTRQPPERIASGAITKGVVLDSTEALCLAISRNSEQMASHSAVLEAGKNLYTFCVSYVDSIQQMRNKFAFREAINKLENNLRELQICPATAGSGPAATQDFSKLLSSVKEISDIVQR

Compound	EC50 for c-Abl activation [1] [nM]	Papp at 3 h [2] [×10⁻⁶ cm/s]	solubility kinetic at 1 h [3] [µM]	EC50 [4] [nM]	IC50 [5] [nM]	EC50 [1] [nM]
NC1=NN(c2ccc(Cl)c(Cl)c2)CC1	6310	32	69 (≈ 15.9 µg/mL)	12600	2000	–
O=C(Nc1nc(-c2ccc(Cl)c(Cl)c2)cs1)c1c(F)cccc1F	251	< 3	5 (≈ 1.93 µg/mL)	5010	316	–
CC(=O)Nc1nc(-c2ccc(Cl)c(Cl)c2)cs1	2510	19.6	< 1	31600	316	–
O=C(Nc1nc(-c2ccc(Cl)c(Cl)c2)cs1)C1CC1	158	22.7	3 (≈ 0.94 µg/mL)	> 50100	251	–
Cc1ncncc1C(=O)NC1=NN(c2ccc(Cl)c(Cl)c2)CC1	39.8	34	12 (≈ 4.2 µg/mL)	316	158	–
CS(=O)(=O)Nc1nc(-c2ccc(Cl)c(Cl)c2)cs1	25100	22	429 (≈ 139 µg/mL)	> 50100	> 50100	–
Cn1cnnc1SCC(=O)Nc1nc(-c2ccc(Cl)c(Cl)c2)cs1	–	–	–	20000	794	10000
CC(=O)Nc1nc(-c2ccc(Cl)cc2)cs1	31600	25	1 (≈ 0.253 µg/mL)	–	10000	–
CC(=O)NC1=NN(c2ccc(Cl)c(Cl)c2)CC1C (racemic)	–	40.5	49 (≈ 14 µg/mL)	501	794	–
CC(=O)Nc1nc(-c2ccc(Cl)c(C)c2)cs1	31600	14	1 (≈ 0.267 µg/mL)	> 50100	794	–
O=C(NC1=NN(c2ccc(Cl)c(Cl)c2)CC1)c1ccncc1	200	30.3	9 (≈ 3.02 µg/mL)	1580	316	–
CC(=O)NC1=NN(c2ccc(Cl)c(Cl)c2)C[C@@H]1C	–	42	32 (≈ 9.16 µg/mL)	631	398	–
CC(=O)NC1=NN(c2ccc(Cl)c(Cl)c2)C[C@H]1C	–	38	36 (≈ 10.3 µg/mL)	20000	3980	–
CC(=O)Nc1nc(-c2ccc(Br)s2)cs1	12600	21	16 (≈ 4.85 µg/mL)	> 50100	5010	–
Cn1ncc([N+](=O)[O-])c1C(=O)Nc1nc(-c2ccc(Cl)c(Cl)c2)cs1	31.6	26	< 1	15800	200	–
O=C(NC1=NN(c2ccc(Cl)c(Cl)c2)CC1)c1cccnc1F	126	57	13 (≈ 4.59 µg/mL)	1260	398	–
N#CCC(=O)Nc1csc(-c2ccc(Cl)c(Cl)c2)n1	1580	35	2 (≈ 0.624 µg/mL)	15800	126	–
CC(=O)Nc1nc(-c2cccc(Cl)c2)cs1	7940	34	2 (≈ 0.505 µg/mL)	–	> 50100	–
O=C(NC1=NN(c2ccc(Cl)c(Cl)c2)CC1)c1cccnc1	158	30.5	4 (≈ 1.34 µg/mL)	631	251	–
CC(=O)NC1=NN(c2ccc(Cl)c(Cl)c2)[C@H](C)C1	2000	41	173 (≈ 49.5 µg/mL)	10000	1580	–
N#CCC(=O)Nc1nsc(-c2ccc(Cl)c(Cl)c2)n1	2000	28	69 (≈ 21.6 µg/mL)	15800	2510	–
CC(=O)Nc1nc(-c2cccc(O)c2)cs1	> 50100	27	103 (≈ 24.1 µg/mL)	–	12600	–
N#CCC(=O)Nc1csc(-c2ccc(Cl)c(Cl)c2)c1	15800	12	10 (≈ 3.11 µg/mL)	> 50100	3980	–
N#CCC(=O)Nc1ccn(-c2ccc(Cl)c(Cl)c2)n1	2510	31	34 (≈ 10 µg/mL)	7940	1580	–
O=C(NC1=NN(c2ccc(Cl)c(Cl)c2)CC1CCO)c1cccnc1 (racemic)	126	19	192 (≈ 72.8 µg/mL)	7940	251	–
CC(=O)Nc1nc(-c2nc(C)no2)cs1	> 100000	25	186 (≈ 41.7 µg/mL)	–	> 50100	–
O=C(NC1=NN(c2ccc(Cl)c(Cl)c2)CC1)c1cccnn1	5010	–	67 (≈ 22.5 µg/mL)	> 50100	794	–
O=C1NC(=O)C(c2cn(-c3ccccc3)nc2-c2ccc(F)cc2)N1 (configuration not stated)	–	35	> 395	794	398	–
O=C(NC1=NN(c2ccc(Cl)c(Cl)c2)CC1)c1c(F)cccc1F	631	–	–	3160	398	–
